The values that follow come from US20230348376A1 (TEIJIN PHARMA LIMITED, priority 2020, published 2023).

Like-named read-outs stand apart in the source and are kept apart here. Where only a bound is given, the exact number is not on record here.

In this assay the target is T1, human VDR (Homo sapiens, UniProt P11473).
T1 sequence (P11473 1-427): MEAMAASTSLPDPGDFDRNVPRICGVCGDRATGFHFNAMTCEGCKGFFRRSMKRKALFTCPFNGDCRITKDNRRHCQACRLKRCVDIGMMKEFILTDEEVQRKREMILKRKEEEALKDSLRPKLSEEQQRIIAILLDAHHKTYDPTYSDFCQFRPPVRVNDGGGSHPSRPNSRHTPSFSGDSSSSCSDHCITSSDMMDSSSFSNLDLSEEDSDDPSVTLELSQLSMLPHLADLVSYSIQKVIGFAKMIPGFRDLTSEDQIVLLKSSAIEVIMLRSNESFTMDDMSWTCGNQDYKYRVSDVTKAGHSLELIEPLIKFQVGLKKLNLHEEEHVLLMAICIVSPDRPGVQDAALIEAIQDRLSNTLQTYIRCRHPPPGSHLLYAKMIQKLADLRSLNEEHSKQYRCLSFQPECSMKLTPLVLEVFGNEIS
T1 sequence (P19793 1-462 partner): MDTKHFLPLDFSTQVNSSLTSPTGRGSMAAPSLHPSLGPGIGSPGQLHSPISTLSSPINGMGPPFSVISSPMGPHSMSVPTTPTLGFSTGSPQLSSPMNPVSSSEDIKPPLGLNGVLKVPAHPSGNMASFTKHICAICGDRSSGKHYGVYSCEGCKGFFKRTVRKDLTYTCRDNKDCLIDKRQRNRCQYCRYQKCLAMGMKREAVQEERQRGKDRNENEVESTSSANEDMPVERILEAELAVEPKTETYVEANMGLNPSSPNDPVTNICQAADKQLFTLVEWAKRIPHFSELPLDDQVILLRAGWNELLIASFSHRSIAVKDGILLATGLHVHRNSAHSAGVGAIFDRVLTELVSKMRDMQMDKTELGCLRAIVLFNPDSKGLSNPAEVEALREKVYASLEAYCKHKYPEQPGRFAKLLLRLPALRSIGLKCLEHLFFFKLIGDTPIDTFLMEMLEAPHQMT
The assay can be described thus: Evaluation of VDR transcription activity in human osteoblasts (HOS cells), luciferase reporter. To be noted: HOS cells transfected with human VDR, human RXRα and DR3 luciferase reporter, 21 hours.

Setting [1] is: Activity (EC50, VDR transcription activity).

`C=C1/C(=C\C=C2/CCC[C@]3(C)[C@@H]([C@H](C)CN4CCC[C@H](C(F)F)C4)CC[C@@H]23)C[C@@H](O)[C@H](C)[C@@H]1O` [Compound C050, (1R,2S,3 S,Z)-5-(2-((1R,3aS,7aR,E)-1-((S)-1-((S)-3-(difluoromethyl)piperidin-1-yl)propan-2-yl)-7a-methyloctahydro-4H-inden-4-ylidene)ethylidene)-2-methyl-4-methylenecyclohexane-1,3-diol]: the EC50 under setting [1] is 1 to 10 nM.
The same measure, in the same setting: the figure for `C=C1/C(=C\C=C2/CCC[C@]3(C)[C@@H]([C@H](C)CN4CCC(O)(C(F)F)CC4)CC[C@@H]23)C[C@@H](O)C[C@@H]1O` [Compound C021, (1R,3S,Z)-5-(2-((1R,3aS,7aR,E)-1-((S)-1-(4-(difluoromethyl)-4-hydroxypiperidin-1-yl)propan-2-yl)-7a-methyloctahydro-4H-inden-4-ylidene)ethylidene)-4-methylenecyclohexane-1,3-diol] is 100 to 1000 nM; for `C[C@@H](CN1CCC(O)(C(F)F)CC1)[C@H]1CC[C@H]2/C(=C/C=C3C[C@@H](O)C[C@H](O)C3)CCC[C@]12C` [Compound C025, (1R,3R)-5-(2-((1R,3aS,7aR,E)-1-((R)-1-(4-(difluoromethyl)-4-hydroxypiperidin-1-yl)propan-2-yl)-7a-methyloctahydro-4H-inden-4-ylidene)ethylidene)cyclohexane-1,3-diol] it is 10 to 100 nM; for `C=C1[C@H](O)CC(=C/C=C2\CCC[C@]3(C)[C@@H]([C@H](C)CN4CCC(O)(C(F)F)CC4)CC[C@@H]23)C[C@H]1O` [Compound C022, (1R,3R)-5-(2-((1R,3aS,7aR,E)-1-((S)-1-(4-(difluoromethyl)-4-hydroxypiperidin-1-yl)propan-2-yl)-7a-methyloctahydro-4H-inden-4-ylidene)ethylidene)-2-methylenecyclohexane-1,3-diol] it is 10 to 100 nM.
Still for that read-out and setting: the figure for `C=C1/C(=C\C=C2/CCC[C@]3(C)[C@@H]([C@@H](C)CN4CCC(C(F)F)CC4)CC[C@@H]23)C[C@@H](O)C[C@@H]1O` [Compound C017, (1R,3S,Z)-5-(2-((1R,3aS,7aR,E)-1-((R)-1-(4-(difluoromethyl)piperidin-1-yl)propan-2-yl)-7a-methyloctahydro-4H-inden-4-ylidene)ethylidene)-4-methylenecyclohexane-1,3-diol] is 10 to 100 nM.
On the same count and under the same terms, next, `C=C1/C(=C\C=C2/CCC[C@]3(C)[C@@H]([C@H](C)CN4CCO[C@@H](C(F)F)C4)CC[C@@H]23)C[C@@H](O)C[C@@H]1O` [Compound D006, (1R,3S,Z)-5-(2-((1R,3aS,7aR,E)-1-((S)-1-((R)-2-(difluoromethyl)morpholino)propan-2-yl)-7a-methyloctahydro-4H-inden-4-ylidene)ethylidene)-4-methylenecyclohexane-1,3-diol]: 10 to 100 nM.
On to `C=C1/C(=C\C=C2/CCC[C@]3(C)[C@@H]([C@H](C)CN4CCC(O)(C(F)(F)F)C4)CC[C@@H]23)C[C@@H](O)C[C@@H]1O` (single isomer, unassigned) [Compound B044b], for which, where the note is “read-out: Activity (EC50, VDR transcription activity)”, the EC50 is less than 1 nM.
`C=C1/C(=C\C=C2/CCC[C@]3(C)[C@@H]([C@H](C)CCN4CCOC[C@H]4C)CC[C@@H]23)C[C@@H](O)CC1O` (stereo in doubt) [Compound D046, (1R,3R,Z)-5-(2-((1R,3aS,7aR,E)-7a-methyl-1-((R)-4-((R)-3-methylmorpholino)butan-2-yl)octahydro-4H-inden-4-ylidene)ethylidene)-4-methylenecyclohexane-1,3-diol] came in with an EC50 under setting [1] of 10 to 100 nM.
With `C[C@H](CCN1CC[C@@H](C(F)F)C1)[C@H]1CC[C@H]2/C(=C/C=C3C[C@@H](O)C[C@H](O)C3)CCC[C@]12C` [Compound B081, (1R,3R)-5-(2-((1R,3aS,7aR,E)-1-((R)-4-((R)-3-(difluoromethyl)pyrrolidin-1-yl)butan-2-yl)-7a-methyloctahydro-4H-inden-4-ylidene)ethylidene)cyclohexane-1,3-diol], the EC50 under setting [1] fell in the range of 10 to 100 nM.
On the same count and under the same terms, the figure for `C[C@H](CN1CC[C@H](CCC(F)F)C1)[C@H]1CC[C@H]2/C(=C/C=C3C[C@@H](O)C[C@H](O)C3)CCC[C@]12C` [Compound B063, (1R,3R)-5-(2-((1R,3aS,7aR,E)-1-((S)-1-((S)-3-(3,3-difluoropropyl)pyrrolidin-1-yl)propan-2-yl)-7a-methyloctahydro-4H-inden-4-ylidene)ethylidene)cyclohexane-1,3-diol] is 10 to 100 nM; for `C=C1/C(=C\C=C2/CCC[C@]3(C)[C@@H]([C@H](C)CN4CCC(O)(C(F)F)CC4)CC[C@@H]23)C[C@@H](O)[C@H](C)[C@@H]1O` [Compound C023, (1R,2S,3S,Z)-5-(2-((1R,3aS,7aR,E)-1-((S)-1-(4-(difluoromethyl)-4-hydroxypiperidin-1-yl)propan-2-yl)-7a-methyloctahydro-4H-inden-4-ylidene)ethylidene)-2-methyl-4-methylenecyclohexane-1,3-diol] it is 1 to 10 nM; for `C=C1[C@H](O)CC(=C/C=C2\CCC[C@]3(C)[C@@H]([C@H](C)CN4CCC(O)(C(F)(F)F)CC4)CC[C@@H]23)C[C@H]1O` [Compound C004, (1R,3R)-5-(2-((1R,3aS,7aR,E)-1-((S)-1-(4-hydroxy-4-(trifluoromethyl)piperidin-1-yl)propan-2-yl)-7a-methyloctahydro-4H-inden-4-ylidene)ethylidene)-2-methylenecyclohexane-1,3-diol] it is 10 to 100 nM.
Same read-out and setting: the figure for `C=C1[C@H](O)CC(=C/C=C2\CCC[C@]3(C)[C@@H]([C@H](C)CN4CC(O)(C(F)(F)F)C4)CC[C@@H]23)C[C@H]1O` [Compound A011, (1R,3R)-5-(2-((1R,3aS,7aR,E)-1-((S)-1-(3-hydroxy-3-(trifluoromethyl)azetidin-1-yl)propan-2-yl)-7a-methyloctahydro-4H-inden-4-ylidene)ethylidene)-2-methylenecyclohexane-1,3-diol] is less than 1 nM.
The same measure, in the same setting: the figure for `C=C1/C(=C\C=C2/CCC[C@]3(C)[C@@H]([C@@H](C)CN4CC[C@H](C)C4)CC[C@@H]23)C[C@@H](O)C[C@@H]1O` [Compound B010, (1R,3S,Z)-5-(2-((1R,3aS,7aR,E)-7a-methyl-1-((R)-1-((S)-3-methylpyrrolidin-1-yl)propan-2-yl)octahydro-4H-inden-4-ylidene)ethylidene)-4-methylenecyclohexane-1,3-diol] is 10 to 100 nM.
With `C=C1/C(=C\C=C2/CCC[C@]3(C)[C@@H]([C@H](C)CN4CC(C(C)(F)F)C4)CC[C@@H]23)C[C@@H](O)C[C@@H]1O` [Compound A006, (1R,3S,Z)-5-(2-((1R,3aS,7aR,E)-1-((S)-1-(3-(1,1-difluoroethyl)azetidin-1-yl)propan-2-yl)-7a-methyloctahydro-4H-inden-4-ylidene)ethylidene)-4-methylenecyclohexane-1,3-diol], the EC50 under setting [1] fell in the range of 10 to 100 nM.
On the same count and under the same terms, the figure for `C=C1/C(=C\C=C2/CCC[C@]3(C)[C@@H]([C@H](C)CN4CCCC(O)(C(F)F)C4)CC[C@@H]23)C[C@@H](O)C[C@@H]1O` (single isomer, unassigned) [Compound C034a] is less than 1 nM.
On the same count and under the same terms, the figure for `C=C1[C@H](O)CC(=C/C=C2\CCC[C@]3(C)[C@@H]([C@H](C)CCN4CC[C@H](C(F)F)C4)CC[C@@H]23)C[C@H]1O` [Compound B088, (1R,3R)-5-(2-((1R,3aS,7aR,E)-1-((R)-4-((S)-3-(difluoromethyl)pyrrolidin-1-yl)butan-2-yl)-7a-methyloctahydro-4H-inden-4-ylidene)ethylidene)-2-methylenecyclohexane-1,3-diol] is 1 to 10 nM; for `C=C1/C(=C\C=C2/CCC[C@]3(C)[C@@H]([C@H](C)CN4CC[C@@H](C(C)(F)F)C4)CC[C@@H]23)C[C@@H](O)C[C@@H]1O` [Compound B032, (1R,3S,Z)-5-(2-((1R,3aS,7aR,E)-1-((S)-1-((R)-3-(1,1-difluoroethyl)pyrrolidin-1-yl)propan-2-yl)-7a-methyloctahydro-4H-inden-4-ylidene)ethylidene)-4-methylenecyclohexane-1,3-diol] it is 1 to 10 nM; for `C[C@H](CN1CC[C@](C)(O)C1)[C@H]1CC[C@H]2/C(=C/C=C3CC(O)C[C@H](O)C3)CCC[C@]12C` (stereo in doubt) [Compound B072, (1R,3 S)-5-(2-((1R,3aS,7aR,E)-1-((S)-1-((S)-3-hydroxy-3-methylpyrrolidin-1-yl)propan-2-yl)-7a-methyloctahydro-4H-inden-4-ylidene)ethylidene)cyclohexane-1,3-diol] it is 10 to 100 nM.
